Values of other authors as cited in patent US10342235B2, “Formulations comprising phosphite” (Ceradis B.V., priority 2015, dated 2019).

Test system: rodents
Conditions: oral administration, dermal administration, inhalatory exposure

potassium phosphite
Toxicity in rodents: low toxicity
